Values quoted from earlier work as cited in patent publication US8551985B2, “Carbinol derivatives having heterocyclic linker” (Kowa Company, Ltd., priority 2009, dated 2013).

Target: T1, LXRβ (Homo sapiens, UniProt P55055)
T1 sequence (P55055 1-460): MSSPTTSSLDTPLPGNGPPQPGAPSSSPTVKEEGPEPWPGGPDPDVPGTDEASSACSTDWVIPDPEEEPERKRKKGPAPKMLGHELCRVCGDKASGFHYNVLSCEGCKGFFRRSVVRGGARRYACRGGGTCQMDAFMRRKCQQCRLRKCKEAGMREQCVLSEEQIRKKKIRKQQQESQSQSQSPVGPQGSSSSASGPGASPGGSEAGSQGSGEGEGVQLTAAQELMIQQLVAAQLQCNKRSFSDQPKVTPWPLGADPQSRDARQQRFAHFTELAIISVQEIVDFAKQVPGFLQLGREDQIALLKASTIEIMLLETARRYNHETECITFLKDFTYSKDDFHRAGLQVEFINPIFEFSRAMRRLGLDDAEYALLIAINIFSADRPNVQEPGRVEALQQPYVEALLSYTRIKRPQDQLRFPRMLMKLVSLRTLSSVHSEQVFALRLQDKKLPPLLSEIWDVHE

Q: Which “LXRβ-selective binding affinity (α/β ratio)” value does the source give for `O=C(O)Cc1ccc(COc2cccc(-c3c(Cc4ccccc4)cnc4c(C(F)(F)F)cccc34)c2)cc1` [WAY-254011] here?
A: 1 to 5
